Results: patent US9643953B2, “Substituted benzylpyrazoles” (Bayer Intellectual Property GmbH, priority 2011, dated 2017)
Like-named read-outs stand apart in the source and are kept apart here.

Assays:
HeLa cell line = assay: Proliferation assay (HeLa cell line); settings: Homo sapiens, HeLa, 96 h, read-out: Biological Assay 2: Proliferation assay (HeLa cell line) median IC50;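 also: crystal violet staining of cell number, absorbance read at 595 nm, compounds tested at 0.001–10 µM, zero-point plate taken as 0% and untreated cells as 100%, four-parameter fit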
Procedure: (§1) Cultivated tumor cells (cells were ordered from ATCC, except HeLa-MaTu and HeLa-MaTu-ADR, which were ordered from EPO-GmbH, Berlin) were plated at a density of 1000 to 5000 cells/well, depending on the growth rate of the respective cell line, in a 96-well multititer plate in 200 μL of their respective growth medium supplemented 10% fetal calf serum. After 24 hours, the cells of one plate (zero-point plate) were stained with crystal violet (see below), while the medium of the other plates was replaced by fresh culture medium (200 μl), to which the test substances were added in various concentrations (0 μM, as well as in the range of 0.001-10 μM; the final concentration of the solvent dimethyl sulfoxide was 0.5%). The cells were incubated for 4 days in the presence of test substances. Cell proliferation was determined by staining the cells with crystal violet: the cells were fixed by adding 20 μl/measuring point of an 11% glutaric aldehyde solution for 15 minutes at room temperature. After three washing cycles of the fixed cells with water, the plates were dried at room temperature. The cells were stained by adding 100 μl/measuring point of a 0.1% crystal violet solution (pH 3.0). After three washing cycles of the stained cells with water, the plates were dried at room temperature. The dye was dissolved by adding 100 μl/measuring point of a 10% acetic acid solution. Absorption was determined by photometry at a wavelength of 595 nm. The change of cell number, in percent, was calculated by normalization of the measured values to the absorption values of the zero-point plate (=0%) and the absorption of the untreated (0 μm) cells (=100%). The IC50 values were determined by means of a 4 parameter fit.

[1] = molecular target: T1, catalytic domain of human Bub1 (amino acids 704-1085) (Homo sapiens, UniProt O43683); assay: Bub1 kinase assay (TR-FRET); type: biochemical; settings: ATP 10 μM, peptide substrate 1 μM, 60 min at 22° C.
T1 construct: catalytic domain of human Bub1 (amino acids 704-1085); His6 (N); made in house; host or cells: Hi5 insect cells
T1 sequence (O43683 704-1085): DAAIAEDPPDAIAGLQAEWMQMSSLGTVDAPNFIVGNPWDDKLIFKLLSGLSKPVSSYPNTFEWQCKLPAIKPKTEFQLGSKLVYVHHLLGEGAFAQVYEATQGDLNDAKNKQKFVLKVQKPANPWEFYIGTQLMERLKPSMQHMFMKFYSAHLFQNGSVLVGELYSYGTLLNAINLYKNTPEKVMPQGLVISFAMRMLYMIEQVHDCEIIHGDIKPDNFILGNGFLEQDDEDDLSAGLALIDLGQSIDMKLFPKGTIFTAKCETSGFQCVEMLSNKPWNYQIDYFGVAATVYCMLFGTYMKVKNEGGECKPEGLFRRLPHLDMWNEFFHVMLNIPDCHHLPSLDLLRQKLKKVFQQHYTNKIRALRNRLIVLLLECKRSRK
Procedure: To this end, 100-fold concentrated compound solutions (in DMSO) were previously prepared by serial dilution (1:3.4) of 2 mM stocks in a clear low volume 384-well source microtiter plate (Greiner Bio-One, Frickenhausen, Germany), from which 50 nl of compounds were transferred into a black low volume test microtiter plate from the same supplier. […] The resulting mixture (5 μl final volume) was incubated at 22° C. during 60 min., and the reaction was stopped by the addition of 5 μl of an aqueous EDTA-solution (50 mM EDTA, in 100 mM HEPES pH 7.5 and 0.2% (w/v) bovine serum albumin) which also contained the TR-FRET detection reagents (0.2 μM streptavidin-XL665 [Cisbio Bioassays, Codolet, France] and 1 nM anti-phosho-Serine antibody [Merck Millipore, cat. #35-001] and 0.4 nM LANCE EU-W1024 labeled anti-mouse IgG antibody [Perkin-Elmer, product no. AD0077, alternatively a Terbium-cryptate-labeled anti-mouse IgG antibody from Cisbio Bioassays can be used]). The stopped reaction mixture was further incubated 1 h at 22° C. in order to allow the formation of complexes between peptides and detection reagents. Subsequently, the amount of product was evaluated by measurement of the resonance energy transfer from the Eu-chelate-antibody complex recognizing the Phosphoserine residue to the streptavidin-XL665 bound to the biotin moiety of the peptide. […] IC50 values were calculated by fitting the normalized inhibition data to a 4-parameter logistic equation (Minimum, Maximum, IC50, Hill; Y=Max+(Min−Max)/(1+(X/IC50)Hill)).

DU145 cell line = assay: Proliferation assay (DU145 cell line); settings: Homo sapiens, DU-145, 96 h, read-out: Biological Assay 2: Proliferation assay (DU145 cell line) median IC50
Procedure: as §1

H460 cell line = assay: Proliferation assay (H460 cell line); settings: Homo sapiens, NCI-H460, 96 h, read-out: Biological Assay 2: Proliferation assay (H460 cell line) median IC50
Procedure: as §1

B16F10 cell line = assay: Proliferation assay (B16F10 cell line); settings: Mus musculus, B16-F10, 96 h, read-out: Biological Assay 2: Proliferation assay (B16F10 cell line) median IC50
Procedure: as §1

Caco2 cell line = assay: Proliferation assay (Caco2 cell line); settings: Homo sapiens, Caco-2, 96 h, read-out: Biological Assay 2: Proliferation assay (Caco2 cell line) median IC50
Procedure: as §1

HeLa-MaTu-ADR cell line = assay: Proliferation assay (HeLa-MaTu-ADR cell line); settings: 96 h, read-out: Biological Assay 2: Proliferation assay (HeLa-MaTu-ADR cell line) median IC50
Procedure: as §1

[2] = Biological Assay 1: Bub1 kinase assay median IC50, TR-FRET

Row | Structure (SMILES) | IC50 (HeLa cell line) [nM] | IC50 ([1]; TR-FRET, read-out: Biological Assay 1: Bub1 kinase assay median IC50) [nM] | IC50 (DU145 cell line) [nM] | IC50 (H460 cell line) [nM] | IC50 (B16F10 cell line) [nM] | IC50 (Caco2 cell line) [nM] | IC50 (HeLa-MaTu-ADR cell line) [nM] | IC50 [1, 2] [nM]
1 | CCOc1cc(F)c(Cn2nc(-c3ncc(OC)c(Nc4ccncc4)n3)c(C)c2C2CC2)c(F)c1 [Example 2-1-12, 2-[5-cyclopropyl-1-(4-ethoxy-2,6-difluorobenzyl)-4-methyl-1H-pyrazol-3-yl]-5-methoxy-N-(pyridin-4-yl)pyrimidin-4-amine] | 4380 | 6.03 | 3090 | 2620 | 2240 | 2130 | 3080 | –
2 | CCOc1cc(F)c(Cn2nc(-c3ncc(OCCN(C)C)c(Nc4ccncc4)n3)c(C)c2C2CC2)c(F)c1 [Example 2-3-1, 2-[5-cyclopropyl-1-(4-ethoxy-2,6-difluorobenzyl)-4-methyl-1H-pyrazol-3-yl]-5-[2-(dimethylamino)ethoxy]-N-(pyridin-4-yl)pyrimidin-4-amine] | 3450 | – | 3200 | 1460 | 422 | 1940 | 1260 | 7.45
3 | CCOc1cc(F)c(Cn2nc(-c3ncc(OCCCS(C)(=O)=O)c(Nc4ccncc4)n3)c(C)c2C2CC2)c(F)c1 [Example 2-3-10, 2-[5-cyclopropyl-1-(4-ethoxy-2,6-difluorobenzyl)-4-methyl-1H-pyrazol-3-yl]-5-[3-(methylsulfonyl)propoxy]-N-(pyridin-4-yl)pyrimidin-4-amine] | 1130 | – | 1610 | 1550 | 1180 | 1410 | 755 | 9.49
